Key:
[1] = tested on: panel of HIV-1 Env Pseudoviruses (49 clones of clinical isolates, subtypes A, B, C, D, Arec); format: cell-based; settings: 49 HIV-1 clones of clinical isolates
[2] = tested on: TZM-bl cells; settings: human, 3 days
Protocol: (§1) The anti-HIV-1 activity was assessed in a single-cycle assay by infecting TZM-bl indicator cells with the pseudovirus HIV-1 HXB2 according to established procedures (F. Curreli, Y. D. Kwon, D. S. Belov, R. R. Ramesh, A. V. Kurkin, A. Altieri, P. D. Kwong, A. K. Debnath, J Med Chem 2017, 60, 3124-3153; which is incorporated herein by reference for all that it teaches about the conduct and interpretation of the assay).
(§2) The cytotoxicity of the small polycyclic molecules in TZM-bl cells was determined by using the colorimetric method CellTiter 96® AQueous One Solution Cell Proliferation Assay (MTS) (Promega) following the manufacturer's instructions. Briefly, TZM-bl cells were platted in a 96-well tissue culture plate at 1×10^4/well and cultured at 37° C. Following overnight incubation, the cells were incubated with 100 μl of the compounds at graded concentrations and cultured for 3 days. The MTS reagent was added to the cells and incubated for 4 h at 37° C. The absorbance was recorded at 490 nm.

[3] = in vitro; settings: human, CC50
Protocol: as §1, §2

Row | SMILES | anti-HIV-1 activity against panel of HIV-1 Env pseudotypes (in words) [1] | CC50 [2] [µM] | CC50 at 3 days [3] [µM]
1 | Cc1cc(-c2ccc(C(F)(F)F)cn2)[nH]c1C(=O)NC(CN)c1ncc(CO)s1 (stereo not shown) [Compound 8, N-(2-amino-1-(5-(hydroxymethyl)thiazol-2-yl)ethyl)-3-methyl-5-(5-(trifluoromethyl)pyridin-2-yl)-1H-pyrrole-2-carboxamide] | sub-micromolar | 109 ± 2 | –
2 | Cc1cc(-c2ccc(C(F)(F)F)cn2)[nH]c1C(=O)NC(CN)c1nc(CO)cs1 (stereo not shown) [Compound 33, N-(2-Amino-1-(4-(hydroxymethyl)thiazol-2-yl)ethyl)-3-methyl-5-(5-(trifluoromethyl)pyridin-2-yl)-1H-pyrrole-2-carboxamide] | sub-micromolar | – | 85 ± 3
